Experimental findings from ChEMBL document CHEMBL5321237 (Eur J Med Chem, 2023) are described below.

SMILES strings stand for the structures.

Data set [1] concerns the target T1, Macrophage colony-stimulating factor 1 receptor (Homo sapiens, UniProt P07333). Kind of data set: Binding affinity to autoinhibited form of CSF1R (unknown origin) assessed as dissociation constant incubated for 1 hr by qPCR based Hill equation analysis.
In data set [2] the test system is T2, Receptor-type tyrosine-protein kinase FLT3 (Homo sapiens), P36888 [D835V].
T2 sequence (whole entry): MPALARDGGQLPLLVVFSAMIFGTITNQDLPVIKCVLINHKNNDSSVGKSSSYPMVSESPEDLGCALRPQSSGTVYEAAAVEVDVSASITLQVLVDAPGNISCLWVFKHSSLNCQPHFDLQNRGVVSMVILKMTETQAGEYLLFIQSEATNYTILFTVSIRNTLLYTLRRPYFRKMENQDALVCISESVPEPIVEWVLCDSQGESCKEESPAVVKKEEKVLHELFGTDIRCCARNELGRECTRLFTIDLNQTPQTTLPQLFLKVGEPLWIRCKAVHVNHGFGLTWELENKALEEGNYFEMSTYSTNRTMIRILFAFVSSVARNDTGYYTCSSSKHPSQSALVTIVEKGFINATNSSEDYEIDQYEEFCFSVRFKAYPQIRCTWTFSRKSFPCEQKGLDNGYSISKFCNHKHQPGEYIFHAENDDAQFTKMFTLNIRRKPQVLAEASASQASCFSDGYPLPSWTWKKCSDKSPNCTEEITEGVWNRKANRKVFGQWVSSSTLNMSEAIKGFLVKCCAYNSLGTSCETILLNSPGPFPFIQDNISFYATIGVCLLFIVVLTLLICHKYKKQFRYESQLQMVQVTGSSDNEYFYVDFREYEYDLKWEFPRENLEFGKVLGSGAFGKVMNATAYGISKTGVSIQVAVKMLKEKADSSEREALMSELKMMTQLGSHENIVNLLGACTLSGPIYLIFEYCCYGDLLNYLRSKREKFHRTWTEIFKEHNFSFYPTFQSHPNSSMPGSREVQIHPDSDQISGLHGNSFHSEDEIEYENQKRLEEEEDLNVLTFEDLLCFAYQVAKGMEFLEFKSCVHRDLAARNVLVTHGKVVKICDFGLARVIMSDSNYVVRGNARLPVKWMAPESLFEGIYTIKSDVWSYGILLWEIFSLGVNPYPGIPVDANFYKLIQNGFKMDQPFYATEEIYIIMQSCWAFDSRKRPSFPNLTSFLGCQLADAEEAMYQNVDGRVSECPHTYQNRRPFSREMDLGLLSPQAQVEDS
Kind of data set: Competitive binding affinity to human FLT3 D835V mutant at 500 nM incubated for 1 hr by qPCR analysis relative to control. On the technique in general: Real-time PCR tracks product formation cycle by cycle.

The target of data set [3] is T1, Macrophage colony-stimulating factor 1 receptor. Kind of data set: Binding affinity to non-autoinhibited form of CSF1R (unknown origin) assessed as dissociation constant incubated for 1 hr by qPCR based Hill equation analysis.
The target in data set [4] is Platelet-derived growth factor receptor beta (Homo sapiens) (UniProt P09619). Kind of data set: Inhibition of human PDGFRbeta binding to streptavidin-coated magnetic beads immobilized biotinylated ligand at 500 nM incubated for 1 hr by qPCR analysis relative to control.
Chain of Platelet-derived growth factor receptor beta (Homo sapiens) (P09619 whole entry): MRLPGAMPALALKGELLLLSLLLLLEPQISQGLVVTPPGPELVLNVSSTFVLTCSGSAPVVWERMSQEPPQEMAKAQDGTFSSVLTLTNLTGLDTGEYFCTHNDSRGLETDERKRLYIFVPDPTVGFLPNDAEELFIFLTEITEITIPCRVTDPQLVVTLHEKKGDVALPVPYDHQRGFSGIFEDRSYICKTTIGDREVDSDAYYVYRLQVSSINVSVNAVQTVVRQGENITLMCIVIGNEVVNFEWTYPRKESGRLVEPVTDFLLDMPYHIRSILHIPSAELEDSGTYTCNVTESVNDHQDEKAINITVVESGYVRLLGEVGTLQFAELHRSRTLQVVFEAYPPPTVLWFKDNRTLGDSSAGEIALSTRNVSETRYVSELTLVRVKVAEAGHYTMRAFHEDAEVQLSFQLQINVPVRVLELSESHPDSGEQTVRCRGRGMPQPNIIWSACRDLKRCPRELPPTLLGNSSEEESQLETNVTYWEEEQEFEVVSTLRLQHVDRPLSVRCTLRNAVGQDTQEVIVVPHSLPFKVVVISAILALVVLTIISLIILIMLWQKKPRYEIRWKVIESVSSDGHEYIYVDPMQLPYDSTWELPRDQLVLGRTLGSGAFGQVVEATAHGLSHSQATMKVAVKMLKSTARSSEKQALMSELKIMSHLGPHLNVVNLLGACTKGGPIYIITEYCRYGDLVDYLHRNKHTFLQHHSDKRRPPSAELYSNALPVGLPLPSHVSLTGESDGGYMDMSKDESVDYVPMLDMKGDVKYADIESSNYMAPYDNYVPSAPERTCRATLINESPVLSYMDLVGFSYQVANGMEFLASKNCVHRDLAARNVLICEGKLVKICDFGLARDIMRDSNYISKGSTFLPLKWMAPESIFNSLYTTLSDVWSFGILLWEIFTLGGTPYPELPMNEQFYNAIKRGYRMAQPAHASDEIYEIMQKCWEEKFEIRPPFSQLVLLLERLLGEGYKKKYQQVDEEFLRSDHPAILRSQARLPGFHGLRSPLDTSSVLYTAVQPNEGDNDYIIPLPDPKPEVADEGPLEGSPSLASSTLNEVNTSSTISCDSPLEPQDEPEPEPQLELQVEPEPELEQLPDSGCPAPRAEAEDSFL
The target of data set [5] is T3, Macrophage colony-stimulating factor 1 receptor (Mus musculus) (UniProt P09581).
T3 sequence (whole entry): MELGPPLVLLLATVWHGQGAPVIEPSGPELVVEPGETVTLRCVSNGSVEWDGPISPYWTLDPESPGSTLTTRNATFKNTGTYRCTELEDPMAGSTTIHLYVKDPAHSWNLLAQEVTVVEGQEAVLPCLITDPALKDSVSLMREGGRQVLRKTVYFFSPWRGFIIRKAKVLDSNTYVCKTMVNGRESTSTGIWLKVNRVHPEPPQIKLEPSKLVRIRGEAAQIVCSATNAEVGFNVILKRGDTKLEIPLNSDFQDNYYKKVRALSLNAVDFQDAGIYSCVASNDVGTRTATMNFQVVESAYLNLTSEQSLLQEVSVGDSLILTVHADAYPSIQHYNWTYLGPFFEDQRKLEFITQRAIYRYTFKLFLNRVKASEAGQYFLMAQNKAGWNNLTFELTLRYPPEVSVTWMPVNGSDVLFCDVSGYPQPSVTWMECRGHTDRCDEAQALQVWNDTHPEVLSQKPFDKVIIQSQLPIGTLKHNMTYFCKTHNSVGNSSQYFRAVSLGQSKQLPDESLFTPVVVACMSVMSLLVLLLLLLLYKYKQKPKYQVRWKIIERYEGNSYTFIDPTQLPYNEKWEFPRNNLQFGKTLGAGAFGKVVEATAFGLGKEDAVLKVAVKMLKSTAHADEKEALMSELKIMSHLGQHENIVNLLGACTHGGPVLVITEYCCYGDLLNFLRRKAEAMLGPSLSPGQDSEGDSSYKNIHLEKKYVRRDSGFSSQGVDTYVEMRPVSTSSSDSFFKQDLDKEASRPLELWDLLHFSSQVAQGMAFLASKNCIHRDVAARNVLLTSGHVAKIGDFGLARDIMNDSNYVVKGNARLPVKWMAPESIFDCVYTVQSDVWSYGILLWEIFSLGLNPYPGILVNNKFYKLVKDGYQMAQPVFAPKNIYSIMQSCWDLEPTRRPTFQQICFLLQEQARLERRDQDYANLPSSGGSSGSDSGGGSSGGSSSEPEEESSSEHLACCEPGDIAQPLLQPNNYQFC
Kind of data set: Inhibition of CSF1-induced CSF1R signalling in mouse BMDM cells assessed as reduction in ERK1/2 phosphorylation by measuring fold change preincubated for 30 mins followed by CSF1 addition and measured after 10 mins relative to pexidartinib. Conditions: time 40.0 min. The class given is cell-based.

The target of data set [6] is T1, Macrophage colony-stimulating factor 1 receptor. The data set can be described thus: Inhibition of CSF1R (unknown origin) using FRET-peptide as substrate incubated in presence of ATP by FRET based Z-LYTE assay.
Data set [7] is described as follows: Metabolic stability in mouse liver microsomes assessed as intrinsic clearance at 3 uM measured upto 50 mins by LC-MS analysis. It counts as ADME, Microsome. Background: Liver microsomes are a subcellular fraction often used to study metabolism.
Data set [8] addresses Receptor-type tyrosine-protein kinase FLT3 (Homo sapiens) (UniProt P36888). The data set can be described thus: Inhibition of autoinhibited human FLT3 binding to streptavidin-coated magnetic beads immobilized biotinylated ligand at 500 nM incubated for 1 hr by qPCR analysis relative to control.

T1 sequence (P07333 whole entry): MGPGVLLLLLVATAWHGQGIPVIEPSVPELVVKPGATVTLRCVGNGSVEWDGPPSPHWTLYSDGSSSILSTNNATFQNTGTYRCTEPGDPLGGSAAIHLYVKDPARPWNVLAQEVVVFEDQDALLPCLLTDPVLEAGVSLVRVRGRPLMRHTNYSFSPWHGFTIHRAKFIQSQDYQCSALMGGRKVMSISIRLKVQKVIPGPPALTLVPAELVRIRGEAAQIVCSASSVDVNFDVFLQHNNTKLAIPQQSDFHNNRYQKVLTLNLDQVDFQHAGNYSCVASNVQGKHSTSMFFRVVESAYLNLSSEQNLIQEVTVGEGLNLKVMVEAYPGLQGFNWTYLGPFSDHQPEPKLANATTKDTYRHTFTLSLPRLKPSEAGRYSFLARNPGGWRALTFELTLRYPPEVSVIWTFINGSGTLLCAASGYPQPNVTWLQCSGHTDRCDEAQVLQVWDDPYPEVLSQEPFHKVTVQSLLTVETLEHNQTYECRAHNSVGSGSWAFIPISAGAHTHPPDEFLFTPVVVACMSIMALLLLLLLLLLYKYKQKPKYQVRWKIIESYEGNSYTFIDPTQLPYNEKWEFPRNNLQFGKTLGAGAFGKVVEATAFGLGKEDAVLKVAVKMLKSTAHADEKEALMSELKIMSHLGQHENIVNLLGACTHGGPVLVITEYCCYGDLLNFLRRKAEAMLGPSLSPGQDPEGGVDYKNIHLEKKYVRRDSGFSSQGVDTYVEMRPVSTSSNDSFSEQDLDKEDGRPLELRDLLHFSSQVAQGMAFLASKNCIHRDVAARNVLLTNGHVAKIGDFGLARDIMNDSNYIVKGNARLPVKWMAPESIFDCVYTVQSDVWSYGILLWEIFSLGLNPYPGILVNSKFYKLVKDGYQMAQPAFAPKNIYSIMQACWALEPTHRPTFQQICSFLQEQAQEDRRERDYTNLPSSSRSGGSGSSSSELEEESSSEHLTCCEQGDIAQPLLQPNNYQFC

As usually defined, the Kd is the concentration at which binding is half-saturated. The term inhibition denotes the drop in the measured response relative to a control, in per cent. A lower inhibition goes with a response near the control. One may read the IC50 as the midpoint of a concentration-inhibition curve. Consider `CN(CC1CCCC1)c1ncnc2[nH]c(-c3ccc(CO)cc3)nc12`, for which the Kd in data set [1] is 17 nM; in data set [3], 220 nM. Besides, the Activity in data set [2] worked out at 92%. In addition, the inhibition in data set [4] and in data set [8] was 12% in each case. In data set [5], the fold change (FC) worked out at 0.4. Also, the IC50 in data set [6] was 0.5 nM. Further, in data set [7], the CLint amounted to 243 µL/min/mg.
